Source: publication PMC7932521, “2-aminobenzimidazoles for leishmaniasis: From initial hit discovery to in vivo profiling” (PLoS Neglected Tropical Diseases, 2021)

Test system: not listed separately
Assay: Experimental distribution coefficient (eLogD)
Type: physicochemical
Conditions: S1 Data
Procedure, shortened: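 Lipophilicity derived from retention time on an Ascentis RP-Amide reverse-phase column by LC-MS/MS, compounds at 1.0 μg/mL with internal standard; mobile phases 5% methanol in 10mM ammonium acetate pH 7.4 and 100% methanol. LogD calculated from a linear calibration of eight standards' retention times against known LogD.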

Structure (SMILES) | eLogD
Cn1nccc1C(=O)Nc1nc2ccc(C#N)cc2n1CC(F)(F)F [Compound 30, O=C(c1ccnn1C)Nc2nc(ccc(C#N)c3)c3n2CC(F)(F)F] | 2.70
N#Cc1ccc2nc(NC(=O)c3ccnc(C(F)(F)F)c3)n(CC(F)(F)F)c2c1 [Compound 44, O=C(c1ccnc(C(F)(F)F)c1)Nc2nc(ccc(C#N)c3)c3n2CC(F)(F)F] | 3.12

Same assay, conditions: reverse stationary phase HPLC column (Ascentis RP-Amide); experimental, pH 7.4

Structure (SMILES) | chromatographic logD
Cn1nccc1C(=O)Nc1nc2ccc(C#N)cc2n1CC(F)(F)F [Compound 30, O=C(c1ccnn1C)Nc2nc(ccc(C#N)c3)c3n2CC(F)(F)F] | 2.7
N#Cc1ccc2nc(NC(=O)c3ccnc(C(F)(F)F)c3)n(CC(F)(F)F)c2c1 [Compound 44, O=C(c1ccnc(C(F)(F)F)c1)Nc2nc(ccc(C#N)c3)c3n2CC(F)(F)F] | 3.1

Biological target: T1, 5-HT2B (Homo sapiens, UniProt P41595)
T1 construct: expressed in transfected cells; host or cells: CHO
T1 sequence (P41595 whole entry): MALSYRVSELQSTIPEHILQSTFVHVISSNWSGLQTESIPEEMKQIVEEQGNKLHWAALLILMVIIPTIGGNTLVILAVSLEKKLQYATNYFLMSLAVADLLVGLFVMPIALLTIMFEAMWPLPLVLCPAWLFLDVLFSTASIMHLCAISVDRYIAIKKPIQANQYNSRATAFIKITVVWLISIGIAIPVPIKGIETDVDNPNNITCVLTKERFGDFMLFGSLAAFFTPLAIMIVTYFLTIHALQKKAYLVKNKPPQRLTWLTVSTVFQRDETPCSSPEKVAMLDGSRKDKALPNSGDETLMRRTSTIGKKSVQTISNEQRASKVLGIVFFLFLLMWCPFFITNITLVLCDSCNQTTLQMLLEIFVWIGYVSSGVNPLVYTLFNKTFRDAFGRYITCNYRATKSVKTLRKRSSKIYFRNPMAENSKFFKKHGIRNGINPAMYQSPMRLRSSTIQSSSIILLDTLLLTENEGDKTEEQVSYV
Assay: Bioprofiling 6pt Antag 5-HT2B CHO
Type: cell-based
Conditions: antagonist readout vs Serotonin (5-HT)
Procedure: (§1) The compounds were evaluated across a panel of 20 liability targets (37 functional assays) which included functional cell-based GPCRs and ion channels in both agonist and antagonist readout, measuring calcium flux and biochemical functional assays for nuclear hormone receptors and phosphodiesterases using TR-FRET format, in a 6 point 1:3 dilution dose series (maximum final concentration of 10 μM).

Structure (SMILES) | IC50 [µM]
Cn1nccc1C(=O)Nc1nc2ccc(C#N)cc2n1CC(F)(F)F [Compound 30, O=C(c1ccnn1C)Nc2nc(ccc(C#N)c3)c3n2CC(F)(F)F] | > 10
N#Cc1ccc2nc(NC(=O)c3ccnc(C(F)(F)F)c3)n(CC(F)(F)F)c2c1 [Compound 44, O=C(c1ccnc(C(F)(F)F)c1)Nc2nc(ccc(C#N)c3)c3n2CC(F)(F)F] | > 10

Test system: not listed separately
Assay: HEPG2 cytotoxicity
Type: cell-based
Conditions: human, HepG2 cells; S1 Data
Text: Supplement pntd.0009196.s001.xlsx, sheet "Complete Dataset" | column: HEPG2 CC50 (uM)

Structure (SMILES) | CC50 [µM]
Cn1nccc1C(=O)Nc1nc2ccc(C#N)cc2n1CC(F)(F)F [Compound 30, O=C(c1ccnn1C)Nc2nc(ccc(C#N)c3)c3n2CC(F)(F)F] | 5.46
N#Cc1ccc2nc(NC(=O)c3ccnc(C(F)(F)F)c3)n(CC(F)(F)F)c2c1 [Compound 44, O=C(c1ccnc(C(F)(F)F)c1)Nc2nc(ccc(C#N)c3)c3n2CC(F)(F)F] | 2.38

Test system: not listed separately
Assay: Plasma stability
Type: in vitro ADME, mouse
Conditions: % remaining after 6h
Procedure: Pooled plasma was thawed in a water bath at 37°C and centrifuged at 4,000 rpm for 5 min to remove any clots. Plasma solution was prepared by adding PBS (pH 7.4) in a 1:1 ratio. It was not necessary to adjust the pH of the final plasma solution. Plasma:PBS and test compound solutions were added to the incubation plate at a final concentration of 2 μM. The plate was incubated in a shaker at 37°C and 50 rpm. Samples were removed (25 μL) from each well of the incubation plate at multiple timepoints and added to a plate containing 100 μL of quench solution (200 ng/mL tolbutamide in 50% acetonitrile/methanol) to precipitate protein. The quenched aliquots were centrifuged at 4000 rpm for 10 min at 5°C. An aliquot of supernatant was transferred from each well to a plate for analysis by LC-MS/MS. Results were calculated as the percentage of remaining parent compound in plasma after incubation.

Structure (SMILES) | Mouse plasma stability [%]
Cn1nccc1C(=O)Nc1nc2ccc(C#N)cc2n1CC(F)(F)F [Compound 30, O=C(c1ccnn1C)Nc2nc(ccc(C#N)c3)c3n2CC(F)(F)F] | 107
N#Cc1ccc2nc(NC(=O)c3ccnc(C(F)(F)F)c3)n(CC(F)(F)F)c2c1 [Compound 44, O=C(c1ccnc(C(F)(F)F)c1)Nc2nc(ccc(C#N)c3)c3n2CC(F)(F)F] | 111

Same assay, conditions: S1 Data

Structure (SMILES) | Plasma Stability [%]
Cn1nccc1C(=O)Nc1nc2ccc(C#N)cc2n1CC(F)(F)F [Compound 30, O=C(c1ccnn1C)Nc2nc(ccc(C#N)c3)c3n2CC(F)(F)F] | 107
N#Cc1ccc2nc(NC(=O)c3ccnc(C(F)(F)F)c3)n(CC(F)(F)F)c2c1 [Compound 44, O=C(c1ccnc(C(F)(F)F)c1)Nc2nc(ccc(C#N)c3)c3n2CC(F)(F)F] | 110.80

Biological target: T2, CB1 (Homo sapiens, UniProt P21554)
T2 construct: expressed in transfected cells; host or cells: CHO
T2 sequence (P21554 whole entry): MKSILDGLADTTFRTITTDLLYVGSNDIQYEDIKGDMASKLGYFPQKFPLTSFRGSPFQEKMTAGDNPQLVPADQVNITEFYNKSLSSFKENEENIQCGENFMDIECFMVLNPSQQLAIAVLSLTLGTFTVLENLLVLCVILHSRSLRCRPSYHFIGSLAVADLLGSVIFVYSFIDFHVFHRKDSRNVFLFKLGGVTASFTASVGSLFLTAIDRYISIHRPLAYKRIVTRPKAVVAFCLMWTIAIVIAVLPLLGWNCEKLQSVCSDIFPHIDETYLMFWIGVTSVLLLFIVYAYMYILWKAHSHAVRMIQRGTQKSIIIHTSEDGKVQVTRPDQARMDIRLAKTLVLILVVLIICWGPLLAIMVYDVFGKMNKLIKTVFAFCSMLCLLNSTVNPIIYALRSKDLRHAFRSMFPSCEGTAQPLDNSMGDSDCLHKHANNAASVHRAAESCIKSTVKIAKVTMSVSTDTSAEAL
Assay: Bioprofiling 6pt Antag CB1 CHO
Type: cell-based
Conditions: antagonist readout vs WIN 55,212-2
Procedure: as §1

Structure (SMILES) | IC50 [µM]
Cn1nccc1C(=O)Nc1nc2ccc(C#N)cc2n1CC(F)(F)F [Compound 30, O=C(c1ccnn1C)Nc2nc(ccc(C#N)c3)c3n2CC(F)(F)F] | > 10
N#Cc1ccc2nc(NC(=O)c3ccnc(C(F)(F)F)c3)n(CC(F)(F)F)c2c1 [Compound 44, O=C(c1ccnc(C(F)(F)F)c1)Nc2nc(ccc(C#N)c3)c3n2CC(F)(F)F] | > 10

Biological target: T3, H1 (Homo sapiens, UniProt P35367)
T3 construct: expressed in transfected cells; host or cells: CHO
T3 sequence (P35367 whole entry): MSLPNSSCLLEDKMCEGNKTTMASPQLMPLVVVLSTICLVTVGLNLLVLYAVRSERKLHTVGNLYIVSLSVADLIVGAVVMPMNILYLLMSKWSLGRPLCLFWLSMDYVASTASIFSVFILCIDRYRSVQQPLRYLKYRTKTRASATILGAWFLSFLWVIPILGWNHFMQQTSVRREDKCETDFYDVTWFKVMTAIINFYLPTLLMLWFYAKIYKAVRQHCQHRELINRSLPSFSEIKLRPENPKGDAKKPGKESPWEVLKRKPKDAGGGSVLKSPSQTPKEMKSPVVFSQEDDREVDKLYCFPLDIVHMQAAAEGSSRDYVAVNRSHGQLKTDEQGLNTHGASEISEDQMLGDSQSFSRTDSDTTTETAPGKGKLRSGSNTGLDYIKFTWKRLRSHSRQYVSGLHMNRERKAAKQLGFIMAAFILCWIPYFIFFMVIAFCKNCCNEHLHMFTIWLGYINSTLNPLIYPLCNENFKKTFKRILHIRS
Assay: Bioprofiling 6pt Antag H1 CHO
Type: cell-based
Conditions: antagonist readout vs Histamine
Procedure: as §1

Structure (SMILES) | IC50 [µM]
Cn1nccc1C(=O)Nc1nc2ccc(C#N)cc2n1CC(F)(F)F [Compound 30, O=C(c1ccnn1C)Nc2nc(ccc(C#N)c3)c3n2CC(F)(F)F] | > 10
N#Cc1ccc2nc(NC(=O)c3ccnc(C(F)(F)F)c3)n(CC(F)(F)F)c2c1 [Compound 44, O=C(c1ccnc(C(F)(F)F)c1)Nc2nc(ccc(C#N)c3)c3n2CC(F)(F)F] | > 10

Biological target: T4, 5-HT1A (Homo sapiens, UniProt P08908)
T4 construct: expressed in transfected cells; host or cells: CHO
T4 sequence (P08908 1-422): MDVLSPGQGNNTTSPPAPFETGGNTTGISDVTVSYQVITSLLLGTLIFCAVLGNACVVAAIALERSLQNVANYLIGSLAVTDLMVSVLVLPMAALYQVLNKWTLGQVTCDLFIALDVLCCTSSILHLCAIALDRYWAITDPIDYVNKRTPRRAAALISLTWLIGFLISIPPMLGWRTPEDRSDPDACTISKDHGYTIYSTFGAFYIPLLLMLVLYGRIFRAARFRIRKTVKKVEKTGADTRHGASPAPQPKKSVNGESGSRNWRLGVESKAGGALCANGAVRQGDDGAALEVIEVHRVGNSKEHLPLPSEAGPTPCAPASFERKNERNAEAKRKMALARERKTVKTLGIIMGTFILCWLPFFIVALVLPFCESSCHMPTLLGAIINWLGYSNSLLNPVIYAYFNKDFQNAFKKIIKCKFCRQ
Assay: Bioprofiling 6pt Ag 5-HT1A CHO
Type: cell-based
Conditions: agonist readout
Procedure: as §1

Structure (SMILES) | EC50 [µM]
Cn1nccc1C(=O)Nc1nc2ccc(C#N)cc2n1CC(F)(F)F [Compound 30, O=C(c1ccnn1C)Nc2nc(ccc(C#N)c3)c3n2CC(F)(F)F] | > 10
N#Cc1ccc2nc(NC(=O)c3ccnc(C(F)(F)F)c3)n(CC(F)(F)F)c2c1 [Compound 44, O=C(c1ccnc(C(F)(F)F)c1)Nc2nc(ccc(C#N)c3)c3n2CC(F)(F)F] | > 10

Biological target: T5, ETA (Homo sapiens, UniProt P25101)
T5 construct: expressed in transfected cells; host or cells: CHO
T5 sequence (P25101 21-427): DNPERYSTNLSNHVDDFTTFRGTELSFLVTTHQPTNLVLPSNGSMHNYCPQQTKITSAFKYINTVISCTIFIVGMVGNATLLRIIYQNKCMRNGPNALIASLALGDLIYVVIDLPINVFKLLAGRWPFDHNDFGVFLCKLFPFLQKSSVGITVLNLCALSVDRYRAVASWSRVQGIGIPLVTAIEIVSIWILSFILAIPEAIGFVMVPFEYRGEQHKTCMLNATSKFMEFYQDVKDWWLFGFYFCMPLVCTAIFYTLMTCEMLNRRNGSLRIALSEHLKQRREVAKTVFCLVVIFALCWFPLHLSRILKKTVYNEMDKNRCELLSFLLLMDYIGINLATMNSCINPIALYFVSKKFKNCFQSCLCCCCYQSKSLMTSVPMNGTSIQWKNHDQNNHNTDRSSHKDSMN
Assay: Bioprofiling 6pt Antag ETA CHO
Type: cell-based
Conditions: antagonist readout vs Endothelin-1 (ET-1)
Procedure: as §1

Structure (SMILES) | IC50 [µM]
Cn1nccc1C(=O)Nc1nc2ccc(C#N)cc2n1CC(F)(F)F [Compound 30, O=C(c1ccnn1C)Nc2nc(ccc(C#N)c3)c3n2CC(F)(F)F] | > 10
N#Cc1ccc2nc(NC(=O)c3ccnc(C(F)(F)F)c3)n(CC(F)(F)F)c2c1 [Compound 44, O=C(c1ccnc(C(F)(F)F)c1)Nc2nc(ccc(C#N)c3)c3n2CC(F)(F)F] | > 10

Biological target: T6, A1 (Homo sapiens, UniProt P30542)
T6 construct: expressed in transfected cells; host or cells: CHO
T6 sequence (P30542 1-326): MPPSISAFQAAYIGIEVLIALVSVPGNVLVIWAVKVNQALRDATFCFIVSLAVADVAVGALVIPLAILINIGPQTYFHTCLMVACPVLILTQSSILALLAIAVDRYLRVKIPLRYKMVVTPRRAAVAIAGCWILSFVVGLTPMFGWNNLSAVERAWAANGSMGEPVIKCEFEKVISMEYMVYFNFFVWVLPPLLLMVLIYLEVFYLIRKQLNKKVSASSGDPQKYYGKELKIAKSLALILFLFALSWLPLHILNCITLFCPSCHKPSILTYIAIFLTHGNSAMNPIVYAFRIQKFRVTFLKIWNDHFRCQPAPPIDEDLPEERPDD
Assay: Bioprofiling 6pt Ag A1 CHO
Type: cell-based
Conditions: agonist readout
Procedure: as §1

Structure (SMILES) | EC50 [µM]
Cn1nccc1C(=O)Nc1nc2ccc(C#N)cc2n1CC(F)(F)F [Compound 30, O=C(c1ccnn1C)Nc2nc(ccc(C#N)c3)c3n2CC(F)(F)F] | > 10
N#Cc1ccc2nc(NC(=O)c3ccnc(C(F)(F)F)c3)n(CC(F)(F)F)c2c1 [Compound 44, O=C(c1ccnc(C(F)(F)F)c1)Nc2nc(ccc(C#N)c3)c3n2CC(F)(F)F] | > 10

Biological target: T1, 5-HT2B
Assay: Bioprofiling 6pt Ag 5-HT2B CHO
Type: cell-based
Conditions: agonist readout
Procedure: as §1

Structure (SMILES) | EC50 [µM]
Cn1nccc1C(=O)Nc1nc2ccc(C#N)cc2n1CC(F)(F)F [Compound 30, O=C(c1ccnn1C)Nc2nc(ccc(C#N)c3)c3n2CC(F)(F)F] | > 10
N#Cc1ccc2nc(NC(=O)c3ccnc(C(F)(F)F)c3)n(CC(F)(F)F)c2c1 [Compound 44, O=C(c1ccnc(C(F)(F)F)c1)Nc2nc(ccc(C#N)c3)c3n2CC(F)(F)F] | > 10

Biological target: T7, ETB (Homo sapiens, UniProt P24530)
T7 construct: expressed in transfected cells; host or cells: CHO
T7 sequence (P24530 27-442): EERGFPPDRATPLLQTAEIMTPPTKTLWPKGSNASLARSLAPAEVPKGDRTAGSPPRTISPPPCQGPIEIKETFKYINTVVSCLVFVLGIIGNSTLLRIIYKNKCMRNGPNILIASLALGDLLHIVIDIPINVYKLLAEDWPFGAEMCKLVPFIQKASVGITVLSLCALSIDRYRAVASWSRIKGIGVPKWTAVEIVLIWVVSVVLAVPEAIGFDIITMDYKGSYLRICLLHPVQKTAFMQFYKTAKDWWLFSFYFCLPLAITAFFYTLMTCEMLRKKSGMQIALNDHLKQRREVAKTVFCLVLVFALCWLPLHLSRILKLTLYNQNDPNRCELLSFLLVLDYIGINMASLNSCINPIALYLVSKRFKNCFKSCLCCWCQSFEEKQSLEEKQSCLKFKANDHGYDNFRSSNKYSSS
Assay: Bioprofiling 6pt Antag ETB CHO
Type: cell-based
Conditions: antagonist readout vs BQ-3020
Procedure: as §1

Structure (SMILES) | IC50 [µM]
Cn1nccc1C(=O)Nc1nc2ccc(C#N)cc2n1CC(F)(F)F [Compound 30, O=C(c1ccnn1C)Nc2nc(ccc(C#N)c3)c3n2CC(F)(F)F] | > 10
N#Cc1ccc2nc(NC(=O)c3ccnc(C(F)(F)F)c3)n(CC(F)(F)F)c2c1 [Compound 44, O=C(c1ccnc(C(F)(F)F)c1)Nc2nc(ccc(C#N)c3)c3n2CC(F)(F)F] | > 10
